Values joined by “and” are separate entries in the source; they are usually repeats but may differ in a detail not shown here. Identical values can stand only once. Like-named read-outs stand apart in the source and are kept apart here.
Assay: Placebo controlled, dose escalation pharmacokinetic study of oral (Z)-Endoxifen capsules (serum endoxifen; incl. accumulation ratios and dose linearity)
Type: in vivo, human
Details: for AUC(0-inf) / AUC(0-t) / Cmax / Tmax / Vd/F / concentration at 72 h / concentration at 120 h / concentration at 0.5 h / concentration at 1 h / concentration at 2 h / concentration at 3 h / concentration at 4 h / concentration at 5 h / concentration at 8 h / concentration at 10 h / concentration at 12 h / concentration at 24 h: female, human, serum, oral; for concentration at 72 h: Day 4 Hr 72; for concentration at 120 h: Day 6 Hr 120; for concentration at 0.5 h: Day 1 hr 0.5; for concentration at 1 h: Day 1 hr 1; for concentration at 2 h: Day 1 hr 2; for concentration at 3 h: Day 1 hr 3; for concentration at 4 h: Day 1 hr 4; for concentration at 5 h: Day 1 hr 5; for concentration at 8 h: Day 1 hr 8; for concentration at 10 h: Day 1 hr 10; for concentration at 12 h: Day 1 hr 12; for concentration at 24 h: Day 1 hr 24
Source text: An objective of the study was to assess the safety and tolerability of oral (Z)-Endoxifen when administered […] orally as a capsule to healthy female volunteers. A secondary objective was to assess the pharmacokinetics of multiple doses of oral (Z)-Endoxifen in the subjects.
Generally, healthy female volunteers aged ≥18 years and ≤65 years were enrolled. 24 participants were enrolled in 3 cohorts and will be administered study drug orally. Three dose levels of orally administered (Z)-Endoxifen were investigated in 3 cohorts. In each cohort participants were randomized to receive an oral (Z)-Endoxifen or placebo in a blinded fashion. Enteric-resistant capsules used in the study were designed as delayed release capsules to resist rupture for at least 30 minutes, but typically, for about 2 hours, under gastric conditions and then open fully in intestinal fluid (DRCaps; Capsugel, a Lonza Company, USA). Enteric-resistant (Swedish Orange size Zero (0); Capsugel, USA) DRCaps capsules manually filled with 1, 2 or 4 mg of (Z)-endoxifen neat in compliance with GMP requirements were used. Placebo capsules contained microcrystalline cellulose an inert common capsule and tablet excipient.
Each cohort enrolled 8 participants, with 6 participants receiving (Z)-Endoxifen 1 mg capsules orally at 1 mg (Cohort 1), 2 mg (Cohort 2) or 4 mg (Cohort 3) doses and 2 participants receiving matching placebo capsules. In Cohort 1 (Dose Level=1 mg) two participants (sentinels) were dosed 24 hours prior to the remaining participants. One sentinel was dosed with (Z)-Endoxifen and the other with placebo. The remaining six participants in Cohort 1 were dosed as no safety concerns were identified in the sentinel participants. The non-sentinel participants in Cohort 1 were admitted to the clinical research facility at least one day later than the sentinels. There were no sentinels in Cohorts 2 and 3.
Participant engagement in this study was for a period of 56 days. These included a 28 day screening period, and a 7 day post treatment period for Pharmacokinetic (PK) sampling. There were two confinement periods, one at the beginning and one at the end of the dosing periods. Participants were confined to the clinical facility on Days-1 through to Day 2 and Days 21 and 22. If participants were to experience any clinically significant adverse events during the study, they would have been required to remain in the clinical facility for further observation at the discretion of the Principal Investigator (PI).
Healthy female volunteers were screened within 28 days prior to commencement of dosing. Participants were admitted to the clinical facility on Day-1 for up to 3 days. The first dose of (Z)-Endoxifen or placebo capsules was administered on Day 1. Following completion of all safety assessments and sampling for PK analyses, participants were discharged from the clinical facility on Day 2. The first dose on Day 1 was followed by a 6-day treatment free period (Days 2-7). Each participant returned to the clinical facility for PK blood draws and safety assessments during the treatment free period on study Days 4 and 6. On Day 8 participants commenced daily administration of (Z)-Endoxifen capsules or placebo capsules for 14 consecutive days (Days 8-21). Participants were supplied with study drug capsules and asked to self administer daily. Participants visited the clinical facility on Days 11, 14 and 17, prior to dose administration, for PK blood draws and safety assessments. On the morning of Day 21 each participant returned to the clinical facility prior to dose administration and were confined to the facility until Day 22 to allow for the collection of PK blood draws and safety assessments. The Day 21 dose was the last administration of study drug. Participants were discharged from the clinical facility on Day 22 and returned for PK blood draws and safety assessments on study Days 24, 26, and 28. […]

[1] = 1 mg, read-out: Serum concentration, GeoMean
[2] = 1 mg, read-out: Serum concentration, Max
[3] = 1 mg, read-out: Serum concentration, Mean
[4] = 1 mg, read-out: Serum concentration, Median
[5] = 1 mg, read-out: Serum concentration, Min

In the case of `CC/C(=C(\c1ccc(O)cc1)c1ccc(OCCNC)cc1)c1ccccc1` [(Z)-Endoxifen, (Z)-4-(1-(4-(2-(methylamino)ethoxy)phenyl)-2-phenylbut-1-enyl) phenol], the “AUC(0-inf), individual subjects” value (Dose: 2 mg oral, Day 1) is reported as 1188 ng·h/mL and 755 ng·h/mL and 954 ng·h/mL and 1242 ng·h/mL and 1489 ng·h/mL, the “AUC(0-inf), individual subjects” value (Dose: 4 mg oral, Day 1) is reported as 1098 ng·h/mL and 1642 ng·h/mL and 736 ng·h/mL and 1883 ng·h/mL and 2116 ng·h/mL and 4624 ng·h/mL and the “Time to maximum serum endoxifen levels” value (FIG. 3 and FIG. 4) is reported as “about 10 hours”. The “dose response of Cmax and AUC24hr” value (across the three dose levels, once daily oral) was “dose-proportionality (linear dose response)”, the “Mean Ratio AUC24 hr(Day 21)/AUC0-inf(Day 1)” value (dose 1 mg (n = 5)) was 0.81 (SD 0.20) and the “Mean Ratio AUC24 hr(Day 21)/AUC24 hr(Day 1)” value (dose 1 mg (n = 5)) was 3.09 (SD 1.49). For the same compound, the “Mean Ratio Cmax(Day 21)/Cmax(Day 1)” value (dose 1 mg (n = 5)) was 2.74 (SD 1.29), the “Mean Ratio AUC24 hr(Day 21)/AUC0-inf(Day 1)” value (dose 2 mg (n = 6)) was 0.85 (SD 0.20) and the “Mean Ratio AUC24 hr(Day 21)/AUC24 hr(Day 1)” value (dose 2 mg (n = 6)) was 3.04 (SD 0.79). For the same compound, the “Mean Ratio Cmax(Day 21)/Cmax(Day 1)” value (dose 2 mg (n = 6)) was 2.92 (SD 0.88), the “Mean Ratio AUC24 hr(Day 21)/AUC0-inf(Day 1)” value (dose 4 mg (n = 6)) was 1.08 (SD 0.38) and the “Mean Ratio AUC24 hr(Day 21)/AUC24 hr(Day 1)” value (dose 4 mg (n = 6)) was 3.47 (SD 1.08). The “Mean Ratio Cmax(Day 21)/Cmax(Day 1)” value (dose 4 mg (n = 6)) was 3.56 (SD 1.01), the AUC(0-inf) (1 mg, Day 1, 1 mg, N = 5, read-out: AUC0-inf, GeoMean) was 559 ng·h/mL and the AUC(0-inf) (1 mg, Day 1, 1 mg, N = 5, read-out: AUC0-inf, Mean) was 567 ng·h/mL. For the same compound, the AUC(0-inf) (1 mg, Day 1, 1 mg, N = 5, read-out: AUC0-inf, Median) was 534 ng·h/mL, the AUC(0-t) (1 mg, Day 1, 1 mg, N = 5, read-out: AUC24hr, GeoMean) was 155 ng·h/mL and the AUC(0-t) (1 mg, Day 1, 1 mg, N = 5, read-out: AUC24hr, Mean) was 158 ng·h/mL. It also gave an AUC(0-t) (1 mg, Day 1, 1 mg, N = 5, read-out: AUC24hr, Median) of 171 ng·h/mL, an AUC(0-t) (1 mg, Day 1, 1 mg, N = 5, read-out: AUCTlast, GeoMean) of 466 ng·h/mL and an AUC(0-t) (1 mg, Day 1, 1 mg, N = 5, read-out: AUCTlast, Mean) of 471 ng·h/mL. For the same compound, the AUC(0-t) (1 mg, Day 1, 1 mg, N = 5, read-out: AUCTlast, Median) was 472 ng·h/mL, the Cmax (1 mg, Day 1, 1 mg, N = 5, read-out: Cmax, GeoMean) was 9.5 ng/mL and the Cmax (1 mg, Day 1, 1 mg, N = 5, read-out: Cmax, Mean) was 9.6 ng/mL. The Cmax (1 mg, Day 1, 1 mg, N = 5, read-out: Cmax, Median) was 10 ng/mL, the Tmax (1 mg, Day 1, 1 mg, N = 5, read-out: Tmax, GeoMean) was 5.11 h and the Tmax (1 mg, Day 1, 1 mg, N = 5, read-out: Tmax, Mean) was 5.62 h. It also gave a Tmax (1 mg, Day 1, 1 mg, N = 5, read-out: Tmax, Median) of 6 h, a Vd/F (1 mg, Day 1, 1 mg, N = 5, read-out: Vz/F, GeoMean) of 118 L and a Vd/F (1 mg, Day 1, 1 mg, N = 5, read-out: Vz/F, Mean) of 120 L. It also gave a Vd/F (1 mg, Day 1, 1 mg, N = 5, read-out: Vz/F, Median) of 108 L, an AUC(0-t) (1 mg, Day 21, 1 mg, N = 5, read-out: AUC24hr, GeoMean) of 431 ng·h/mL and an AUC(0-t) (1 mg, Day 21, 1 mg, N = 5, read-out: AUC24hr, Mean) of 458 ng·h/mL. The AUC(0-t) (1 mg, Day 21, 1 mg, N = 5, read-out: AUC24hr, Median) was 527 ng·h/mL, the Cmax (1 mg, Day 21, 1 mg, N = 5, read-out: Cmax, GeoMean) was 23.3 ng/mL and the Cmax (1 mg, Day 21, 1 mg, N = 5, read-out: Cmax, Mean) was 24.6 ng/mL. It also gave a Cmax (1 mg, Day 21, 1 mg, N = 5, read-out: Cmax, Median) of 29 ng/mL, a Tmax (1 mg, Day 21, 1 mg, N = 5, read-out: Tmax, GeoMean) of 6.64 h and a Tmax (1 mg, Day 21, 1 mg, N = 5, read-out: Tmax, Mean) of 6.88 h. It also gave a Tmax (1 mg, Day 21, 1 mg, N = 5, read-out: Tmax, Median) of 8 h, a Vd/F (1 mg, Day 21, 1 mg, N = 5, read-out: Vz/F, GeoMean) of 173 L and a Vd/F (1 mg, Day 21, 1 mg, N = 5, read-out: Vz/F, Mean) of 181 L. For the same compound, the Vd/F (1 mg, Day 21, 1 mg, N = 5, read-out: Vz/F, Median) was 170 L, the concentration at 72 h [1] was 7.84 nM and the concentration at 72 h [2] was 10.7 nM. For the same compound, the concentration at 72 h [3] was 8.03 nM, the concentration at 72 h [4] was 8.03 nM and the concentration at 72 h [5] was 5.35 nM. The concentration at 120 h [1] was 3.53 nM, the concentration at 120 h [2] was 5.35 nM and the concentration at 120 h [3] was 3.75 nM. For the same compound, the concentration at 120 h [4] was 2.68 nM, the concentration at 120 h [5] was 2.68 nM and the concentration at 0.5 h [1] was 3.18 nM. For the same compound, the concentration at 0.5 h [2] was 5.35 nM, the concentration at 0.5 h [3] was 2.68 nM and the concentration at 0.5 h [4] was 2.68 nM. It also gave a concentration at 0.5 h [5] of 0 nM, a concentration at 1 h [1] of 3.33 nM and a concentration at 1 h [2] of 8.03 nM. It also gave a concentration at 1 h [3] of 3.75 nM, a concentration at 1 h [4] of 2.68 nM and a concentration at 1 h [5] of 2.68 nM. The concentration at 2 h [1] was 17 nM, the concentration at 2 h [2] was 18.7 nM and the concentration at 2 h [3] was 17.1 nM. It also gave a concentration at 2 h [4] of 18.7 nM, a concentration at 2 h [5] of 13.4 nM and a concentration at 3 h [1] of 17.1 nM. The concentration at 3 h [2] was 18.7 nM, the concentration at 3 h [3] was 17.1 nM and the concentration at 3 h [4] was 16.1 nM. The concentration at 3 h [5] was 16.1 nM, the concentration at 4 h [1] was 20.1 nM and the concentration at 4 h [2] was 26.8 nM. For the same compound, the concentration at 4 h [3] was 20.3 nM, the concentration at 4 h [4] was 18.7 nM and the concentration at 4 h [5] was 18.7 nM. It also gave a concentration at 5 h [1] of 23.2 nM, a concentration at 5 h [2] of 26.8 nM and a concentration at 5 h [3] of 23.6 nM. It also gave a concentration at 5 h [4] of 24.1 nM, a concentration at 5 h [5] of 16.1 nM and a concentration at 8 h [1] of 21.1 nM. The concentration at 8 h [2] was 32.1 nM, the concentration at 8 h [3] was 22 nM and the concentration at 8 h [4] was 21.4 nM. It also gave a concentration at 8 h [5] of 13.4 nM, a concentration at 10 h [1] of 21.6 nM and a concentration at 10 h [2] of 32.1 nM. It also gave a concentration at 10 h [3] of 22.5 nM, a concentration at 10 h [4] of 21.4 nM and a concentration at 10 h [5] of 13.4 nM. It also gave a concentration at 12 h [1] of 17.1 nM, a concentration at 12 h [2] of 21.4 nM and a concentration at 12 h [3] of 18.2 nM. For the same compound, the concentration at 12 h [4] was 21.4 nM, the concentration at 12 h [5] was 8.03 nM and the concentration at 24 h [1] was 14.7 nM. The concentration at 24 h [2] was 18.7 nM, the concentration at 24 h [3] was 15 nM and the concentration at 24 h [4] was 16.1 nM. The concentration at 24 h [5] was 10.7 nM and the AUC(0-inf) (2 mg, Day 1, 2 mg, N 6, read-out: AUC0-inf, GeoMean) was 1080 ng·h/mL.

Source: patent US12275684B2, “Methods for making and using endoxifen” (Atossa Therapeutics, Inc., priority 2017, dated 2025)
